From BindingDB's records for doi:10.7270/Q2930RK5 (University of Pittsburgh, 2008) come the findings set out here.

Some results are limits rather than exact numbers.

As a reminder, the IC50 is the concentration at which inhibition is half-maximal.

Serine/threonine-protein kinase PLK1, sequence (P53350 whole entry): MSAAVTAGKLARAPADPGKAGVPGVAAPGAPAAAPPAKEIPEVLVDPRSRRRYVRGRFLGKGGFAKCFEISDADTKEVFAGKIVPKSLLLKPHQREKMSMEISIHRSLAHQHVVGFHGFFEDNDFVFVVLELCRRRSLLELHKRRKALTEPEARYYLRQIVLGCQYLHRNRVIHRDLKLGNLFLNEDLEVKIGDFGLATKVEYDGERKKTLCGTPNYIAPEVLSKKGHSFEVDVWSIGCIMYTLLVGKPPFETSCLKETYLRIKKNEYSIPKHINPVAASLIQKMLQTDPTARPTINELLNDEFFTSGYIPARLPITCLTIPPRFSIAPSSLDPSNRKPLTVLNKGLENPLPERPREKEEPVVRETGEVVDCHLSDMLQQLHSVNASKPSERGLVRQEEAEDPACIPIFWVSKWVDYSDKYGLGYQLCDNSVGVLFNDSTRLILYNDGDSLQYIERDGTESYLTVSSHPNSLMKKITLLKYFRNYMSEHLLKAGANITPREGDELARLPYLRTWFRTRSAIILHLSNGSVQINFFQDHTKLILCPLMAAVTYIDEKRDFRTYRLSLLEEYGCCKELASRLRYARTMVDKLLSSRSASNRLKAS

The test concerns the target Serine/threonine-protein kinase PLK1 (Homo sapiens, UniProt P53350). Put plainly: activity against human Plk1 kinase – biochemical, selectivity assay for PKD inhibitor project, dose response (AID 1383).
For `CCC1=NNc2cccc3c(OC)ccc1c23` [SMR000140796], the IC50 was above 50 µM.

Regarding `O=C(Nc1ccc(CN2CCOCC2)cc1)c1ccc(-c2cccc(Cl)c2)o1` [MLS000557592], the IC50 is above 50 µM.

In turn, `Clc1cncc(Cl)c1N=NCc1ccncc1` [SMR000206620] gave a 50% inhibitory concentration (IC50) above 50 µM.

`Cc1cc(NCCCN)nc(-c2ccccc2O)n1` [MLS000079650] came in with an IC50 above 50 µM.

`CC(=O)Oc1cc(OC(C)=O)c2c(C)cc(=O)oc2c1` [(5-acetyloxy-4-methyl-2-oxochromen-7-yl) acetate] came in with an IC50 above 50 µM.

Take `CS(=O)(=O)N1CCN(c2ccccc2NC(=O)c2ccc(Br)o2)CC1` [MLS000123947]: the 50% inhibitory concentration (IC50) was above 50 µM.

`N=C(N)NC(=O)c1nc(Cl)c(N)nc1N` [3,5-diamino-N-carbamimidoyl-6-chloropyrazine-2-carboxamide]: half-maximal inhibition (IC50) was put at 6.63 µM.

`NC(=O)c1cn([C@@H]2O[C@H](CO)[C@@H](O)[C@H]2O)c2ncnc(N)c12` [MLS000517268] yielded an IC50 of 12.1 µM.

Consider `CCC(=O)Nc1c2c(nn1-c1ccccc1C)CSC2` [MLS000087884], for which the IC50 was above 50 µM.
